From ChEMBL document CHEMBL6083255, “Synthesis and biological evaluation of novel isobenzofuran-1(3H)-one derivatives as antidepressant agents” (2024)
The source made the active and inactive calls. The calls are words filed in the database; no cut-off is given here.

Legend:
RBL-2H3 [1] = assay: Cytotoxicity against Wistar rat RBL-2H3 cells assessed as cell viability at 1 uM incubated for 24 hrs by MTT assay; type: functional; conditions: read-out: Activity
RBL-2H3 [2] = assay: Cytotoxicity against Wistar rat RBL-2H3 cells assessed as cell viability at 5 uM incubated for 24 hrs by MTT assay; type: functional; conditions: read-out: Activity
RBL-2H3 [3] = assay: Cytotoxicity against Wistar rat RBL-2H3 cells assessed as cell viability at 25 uM incubated for 24 hrs by MTT assay; type: functional; conditions: read-out: Activity
RBL-2H3 [4] = assay: Cytotoxicity against Wistar rat RBL-2H3 cells assessed as cell viability at 125 uM incubated for 24 hrs by MTT assay; type: functional; conditions: read-out: Activity
[5] = target: Sodium-dependent serotonin transporter (Rattus norvegicus) (UniProt P31652); assay: Inhibition of SERT in Wistar rat RBL-2H3 cells assessed as decrease in fluorescence intensity at 10 uM preincubated for 2 hrs followed by APP+ addition and measured after 1 hr by fluorescence based assay; type: cell-based; conditions: time 3.0 hrs
Chain of Sodium-dependent serotonin transporter (Rattus norvegicus) (P31652 whole entry): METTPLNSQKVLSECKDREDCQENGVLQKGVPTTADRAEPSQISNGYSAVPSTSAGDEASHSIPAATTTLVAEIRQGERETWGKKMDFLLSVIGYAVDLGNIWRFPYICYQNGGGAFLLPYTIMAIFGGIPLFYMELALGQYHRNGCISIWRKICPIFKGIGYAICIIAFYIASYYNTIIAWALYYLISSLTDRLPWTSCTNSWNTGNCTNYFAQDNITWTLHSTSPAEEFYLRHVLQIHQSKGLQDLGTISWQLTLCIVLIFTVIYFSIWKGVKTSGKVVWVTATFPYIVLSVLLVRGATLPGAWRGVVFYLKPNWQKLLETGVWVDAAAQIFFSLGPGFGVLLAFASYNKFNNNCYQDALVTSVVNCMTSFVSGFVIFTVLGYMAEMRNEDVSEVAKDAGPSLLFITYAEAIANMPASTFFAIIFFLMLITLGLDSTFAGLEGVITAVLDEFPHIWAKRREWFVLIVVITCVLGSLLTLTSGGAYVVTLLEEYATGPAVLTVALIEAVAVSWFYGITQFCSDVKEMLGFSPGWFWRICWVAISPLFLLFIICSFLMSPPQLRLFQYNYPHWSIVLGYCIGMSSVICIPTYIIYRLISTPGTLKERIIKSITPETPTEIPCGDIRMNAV

CHO-K1 [6] = assay: Agonist activity at mu opioid receptor in CHO-K1 cells assessed as increase in intracellular fluorescence intensity at 50 uM incubated for 90 sec by microplate reader assay; type: cell-based; conditions: Cricetulus griseus
CHO-K1 [7] = assay: Antagonist activity at mu opioid receptor in CHO-K1 cells assessed as intracellular fluorescence intensity at 50 uM incubated for 2 mins by microplate reader assay; type: cell-based; conditions: Cricetulus griseus
CHO-K1 [8] = assay: Agonist activity at CCK-B receptor in CHO-K1 cells incubated for 90 sec by microplate reader assay; type: cell-based; conditions: Cricetulus griseus
CHO-K1 [9] = assay: Antagonist activity at CCK-B receptor in CHO-K1 cells at 50 uM incubated for 90 sec by microplate reader assay; type: cell-based; conditions: Cricetulus griseus
Mus musculus [10] = assay: Antidepressant activity in C57BL/6J mouse assessed as reduction in CRS induced body weight loss at 10 mg/kg, po administered as prophylactic dose and measured upto 28 days; type: functional, organism-based; conditions: time <= 28.0 day
Mus musculus [11] = assay: Antidepressant activity in C57BL/6J mouse assessed as reduction in CRS induced body weight loss at 10 to 50 mg/kg, po pretreated with CRS for 14 days followed by compound addition on day 15 and measured upto 28 days; type: functional, organism-based; conditions: dose 10-50 mg/kg, time <= 28.0 day
Mus musculus [12] = assay: Antidepressant activity in chronic restraint stress induced C57BL/6J mouse model assessed as increase the time in center zone at 10 mg/kg, po administered as prophylactic dose and measured on day 29 by open field test; type: functional, organism-based; conditions: time 29.0 day
Mus musculus [13] = assay: Antidepressant activity in chronic restraint stress induced C57BL/6J mouse model assessed as increase the time in center zone at 10 to 50 mg/kg, po pretreated with CRS for 14 days followed by compound addition on day 15 and measured after 29 days by open field test; type: functional, organism-based; conditions: dose 10-50 mg/kg, time 29.0 day
Mus musculus [14] = assay: Antidepressant activity in chronic restraint stress induced C57BL/6J mouse model assessed as increase in total distance in center zone at 10 mg/kg, po administered as prophylactic dose and measured on day 29 by open field test; type: functional, organism-based; conditions: time 29.0 day
Mus musculus [15] = assay: Antidepressant activity in chronic restraint stress induced C57BL/6J mouse model assessed as increase in total distance in center zone at 10 to 50 mg/kg, po pretreated with CRS for 14 days followed by compound addition on day 15 and measured after 29 days by open field test; type: functional, organism-based; conditions: dose 10-50 mg/kg, time 29.0 day
Mus musculus [16] = assay: Antidepressant activity in chronic restraint stress induced C57BL/6J mouse model assessed as increase in latency entries into center zone at 10 mg/kg, po administered as prophylactic dose and measured on day 29 by open field test; type: functional, organism-based; conditions: time 29.0 day
Mus musculus [17] = assay: Antidepressant activity in chronic restraint stress induced C57BL/6J mouse model assessed as increase in latency entries into center zone at 10 to 50 mg/kg, po pretreated with CRS for 14 days followed by compound addition on day 15 and measured after 29 days by open field test; type: functional, organism-based; conditions: dose 10-50 mg/kg, time 29.0 day
Mus musculus [18] = assay: Antidepressant activity in chronic restraint stress induced C57BL/6J mouse model assessed as reduction in immobility time at 10 mg/kg, po administered as prophylactic dose and measured on day 30 by force swimming test; type: functional, organism-based; conditions: time 30.0 day
Mus musculus [19] = assay: Antidepressant activity in chronic restraint stress induced C57BL/6J mouse model assessed as reduction in immobility time at 10 to 50 mg/kg, po pretreated with CRS for 14 days followed by compound addition on day 15 and measured after 30 days by force swimming test; type: functional, organism-based; conditions: dose 10-50 mg/kg, time 30.0 day
Mus musculus [20] = assay: Antidepressant activity in chronic restraint stress induced C57BL/6J mouse model assessed as increase in time in open arm at 10 mg/kg, po administered as prophylactic dose and measured on day 31 by elevated plus maze test; type: functional, organism-based; conditions: time 31.0 day
Mus musculus [21] = assay: Antidepressant activity in chronic restraint stress induced C57BL/6J mouse model assessed as increase in time in open arm at 10 to 50 mg/kg, po pretreated with CRS for 14 days followed by compound addition on day 15 and measured after 31 days by elevated plus maze test; type: functional, organism-based; conditions: dose 10-50 mg/kg, time 31.0 day
Mus musculus [22] = assay: Antidepressant activity in chronic restraint stress induced C57BL/6J mouse model assessed as increase in distance in open arm at 10 mg/kg, po administered as prophylactic dose and measured on day 31 by elevated plus maze test; type: functional, organism-based; conditions: time 31.0 day
Mus musculus [23] = assay: Antidepressant activity in chronic restraint stress induced C57BL/6J mouse model assessed as increase in distance in open arm at 10 to 50 mg/kg, po pretreated with CRS for 14 days followed by compound addition on day 15 and measured after 31 days by elevated plus maze test; type: functional, organism-based; conditions: dose 10-50 mg/kg, time 31.0 day
Mus musculus [24] = assay: Antidepressant activity in chronic restraint stress induced C57BL/6J mouse model assessed as increase in entries in open arm at 10 mg/kg, po administered as prophylactic dose and measured on day 31 by elevated plus maze test; type: functional, organism-based; conditions: time 31.0 day
Mus musculus [25] = assay: Antidepressant activity in chronic restraint stress induced C57BL/6J mouse model assessed as increase in entries in open arm at 10 to 50 mg/kg, po pretreated with CRS for 14 days followed by compound addition on day 15 and measured after 31 days by elevated plus maze test; type: functional, organism-based; conditions: dose 10-50 mg/kg, time 31.0 day
Mus musculus [26] = assay: Antidepressant activity in chronic restraint stress induced C57BL/6J mouse model assessed as increase in 5-HT level in prefrontal cortex at 10 mg/kg, po administered as prophylactic dose by ELISA; type: functional, organism-based
Mus musculus [27] = assay: Antidepressant activity in chronic restraint stress induced C57BL/6J mouse model assessed as increase in 5-HT level in prefrontal cortex at 10 to 50 mg/kg, po pretreated with CRS for 14 days followed by compound addition on day 15 by ELISA; type: functional, organism-based; conditions: dose 10-50 mg/kg
Mus musculus [28] = assay: Antidepressant activity in chronic restraint stress induced C57BL/6J mouse model assessed as increase in hippocampus TPH2 protein expression at 10 mg/kg, po administered as prophylactic dose by Western blotting analysis; type: functional, organism-based
Mus musculus [29] = assay: Antidepressant activity in chronic restraint stress induced C57BL/6J mouse model assessed as rescue of normal neurons at 10 mg/kg, po administered as prophylactic dose by Nissl staining based optical microscopic assay; type: functional, organism-based
Mus musculus [30] = assay: Antidepressant activity in chronic restraint stress induced C57BL/6J mouse model assessed as rescue of normal neurons at 10 to 50 mg/kg, po pretreated with CRS for 14 days followed by compound addition on day 15 by Nissl staining based optical microscopic assay; type: functional, organism-based; conditions: dose 10-50 mg/kg
Mus musculus [31] = assay: Antidepressant activity in chronic restraint stress induced C57BL/6J mouse model assessed as increase in Bcl2/Bax level at 10 mg/kg, po administered as prophylactic dose by Western blotting assay; type: functional, organism-based
Mus musculus [32] = assay: Antidepressant activity in chronic restraint stress induced C57BL/6J mouse model assessed as increase in spinophilin positive cells in cortex at 10 mg/kg, po administered as prophylactic dose by immunohistochemistry assay; type: functional, organism-based
Mus musculus [33] = assay: Antidepressant activity in chronic restraint stress induced C57BL/6J mouse model assessed as increase in spinophilin positive cells in cortex at 10 to 50 mg/kg, po pretreated with CRS for 14 days followed by compound addition on day 15 by immunohistochemistry assay; type: functional, organism-based; conditions: dose 10-50 mg/kg
Mus musculus [34] = assay: Antidepressant activity in chronic restraint stress induced C57BL/6J mouse model assessed as increase in BDNF expression level at 10 mg/kg, po administered as prophylactic dose by Western blotting assay; type: functional, organism-based
Mus musculus [35] = assay: Antidepressant activity in chronic restraint stress induced C57BL/6J mouse model assessed as increase in TrkB expression level at 10 mg/kg, po administered as prophylactic dose by Western blotting assay; type: functional, organism-based
Mus musculus [36] = assay: Antidepressant activity in chronic restraint stress induced C57BL/6J mouse model assessed as increase in PSD-95 expression level at 10 mg/kg, po administered as prophylactic dose by Western blotting assay; type: functional, organism-based

`CCN(CC)CC1(c2ccc(Cl)cc2)OC(=O)c2ccccc21` (stereo unspecified) was tested, and the viability at 1 µM (RBL-2H3 [1]) was 105%, the viability at 5 µM (RBL-2H3 [2]) was 107% and the viability at 25 µM (RBL-2H3 [3]) was 117%. The viability at 125 µM (RBL-2H3 [4]) was 132%, the Activity [5] was “Active; Activity Stronger Than Fluoxetine” and the Activity (CHO-K1 [6]) was “inactive”. For the same molecule, the Activity (CHO-K1 [7]) was “inactive”, the Activity (CHO-K1 [8]) was “inactive” and the Activity (CHO-K1 [9]) was “inactive”. The Activity (Mus musculus [10]) was “Active”, the Activity (Mus musculus [11]) was “Active” and the Activity (Mus musculus [12]) was “Active”. For the same molecule, the Activity (Mus musculus [13]) was “Active”, the Activity (Mus musculus [14]) was “Active” and the Activity (Mus musculus [15]) was “Active”. For the same molecule, the Activity (Mus musculus [16]) was “Active”, the Activity (Mus musculus [17]) was “Active” and the Activity (Mus musculus [18]) was “Active”. The Activity (Mus musculus [19]) was “Active”, the Activity (Mus musculus [20]) was “Active” and the Activity (Mus musculus [21]) was “Active”. For the same molecule, the Activity (Mus musculus [22]) was “Active”, the Activity (Mus musculus [23]) was “Active” and the Activity (Mus musculus [24]) was “Active”. The Activity (Mus musculus [25]) was “Active”, the Activity (Mus musculus [26]) was “Active” and the Activity (Mus musculus [27]) was “Active”. The Activity (Mus musculus [28]) was “Active”, the Activity (Mus musculus [29]) was “Active” and the Activity (Mus musculus [30]) was “Active”. The Activity (Mus musculus [31]) was “Active”, the Activity (Mus musculus [32]) was “Active” and the Activity (Mus musculus [33]) was “Active”. The Activity (Mus musculus [34]) was “Active”, the Activity (Mus musculus [35]) was “Active” and the Activity (Mus musculus [36]) was “Active”.
